Values joined by “and” are separate entries in the source; they are usually repeats but may differ in a detail not shown here. Identical values can stand only once. Blank lines part the entries; values can stand above or below the molecule they belong to. Active and inactive are the calls of the source.
Tests used:
HEK293 = test: viability loss in HEK293T cells – cell-based, ATP luminescence, cherry-pick samples, cytotoxicity control, dose response (AID 687005); format: functional; conditions: Homo sapiens;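 also: cells exposed to compound for 48 hours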
[1] = HEK293 Cytotoxicity Assay Measured in Cell-Based System Using Plate Reader - 7071-01_Inhibitor_Dose_CherryPick_Activity_Set2.; format: functional
[2] = biological target: 26S proteasome non-ATPase regulatory subunit 14 (Homo sapiens, UniProt O00487); test: inhibition of proteasome subunit RPN11 – biochemical, fluorescence polarization, uHTS hits, confirmation (AID 602368); format: functional
26S proteasome non-ATPase regulatory subunit 14, sequence (O00487 whole entry): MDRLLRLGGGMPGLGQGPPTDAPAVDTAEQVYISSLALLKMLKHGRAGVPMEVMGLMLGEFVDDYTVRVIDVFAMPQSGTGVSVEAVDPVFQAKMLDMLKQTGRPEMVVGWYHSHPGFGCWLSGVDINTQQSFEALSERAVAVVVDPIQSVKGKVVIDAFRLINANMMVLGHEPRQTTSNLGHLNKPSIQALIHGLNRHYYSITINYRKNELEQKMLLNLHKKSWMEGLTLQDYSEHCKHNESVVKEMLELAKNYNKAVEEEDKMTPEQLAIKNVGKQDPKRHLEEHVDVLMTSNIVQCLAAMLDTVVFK

[3] = biological target: 72 kDa type IV collagenase (Homo sapiens, UniProt P08253); test: Dose Response validation of uHTS RPN11 inhibitor hits using a MMP-2 Fluorescence assay.; format: functional
72 kDa type IV collagenase, sequence (P08253 whole entry): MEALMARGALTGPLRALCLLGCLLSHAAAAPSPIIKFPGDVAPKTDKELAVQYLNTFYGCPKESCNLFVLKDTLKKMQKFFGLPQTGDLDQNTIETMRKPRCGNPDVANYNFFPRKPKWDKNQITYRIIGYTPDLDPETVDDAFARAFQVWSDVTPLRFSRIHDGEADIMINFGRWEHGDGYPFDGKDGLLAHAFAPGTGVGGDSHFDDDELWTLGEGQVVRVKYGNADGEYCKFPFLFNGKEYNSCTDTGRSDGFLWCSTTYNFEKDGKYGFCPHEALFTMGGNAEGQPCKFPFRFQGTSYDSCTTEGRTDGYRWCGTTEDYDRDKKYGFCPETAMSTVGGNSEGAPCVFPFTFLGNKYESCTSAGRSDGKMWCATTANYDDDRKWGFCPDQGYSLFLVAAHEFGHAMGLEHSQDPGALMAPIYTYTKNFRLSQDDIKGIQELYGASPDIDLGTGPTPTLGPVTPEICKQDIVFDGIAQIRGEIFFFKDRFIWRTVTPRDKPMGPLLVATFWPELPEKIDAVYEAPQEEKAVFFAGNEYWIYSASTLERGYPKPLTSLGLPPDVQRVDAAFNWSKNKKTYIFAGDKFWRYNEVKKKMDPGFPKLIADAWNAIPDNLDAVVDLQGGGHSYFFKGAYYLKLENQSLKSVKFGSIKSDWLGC

Prothrombin = Prothrombin (Bos taurus, UniProt P00735); test: thrombin protease inhibitors – biochemical, fluorescence polarization, uHTS hits, dose response (AID 602369); format: functional
Caspase-6 = Caspase-6 (Homo sapiens, UniProt P55212); test: inhibition of CASP6 peptide cleavage – biochemical, VEID-R110 fluorescence, cherry-pick, dose response (AID 720632)
Caspase-6, sequence (P55212 24-179 limits assumed): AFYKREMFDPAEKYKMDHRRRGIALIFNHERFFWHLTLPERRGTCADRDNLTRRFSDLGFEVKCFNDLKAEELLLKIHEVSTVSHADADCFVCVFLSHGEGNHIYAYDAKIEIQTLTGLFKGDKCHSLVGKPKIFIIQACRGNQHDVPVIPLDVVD
Caspase-6, sequence (P55212 194-293 limits assumed): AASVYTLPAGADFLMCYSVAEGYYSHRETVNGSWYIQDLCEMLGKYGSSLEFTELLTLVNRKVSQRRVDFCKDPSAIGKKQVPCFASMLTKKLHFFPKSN

[4] = biological target: ADP-ribosylation factor GTPase-activating protein 1 (Rattus norvegicus, UniProt Q62848); test: Fluorescence polarization-based biochemical high throughput dose response screening assay to identify inhibitors of ADP-ribosylation factor GTPase activating protein 1 (ARFGAP1).; format: functional
ADP-ribosylation factor GTPase-activating protein 1, sequence (Q62848 whole entry): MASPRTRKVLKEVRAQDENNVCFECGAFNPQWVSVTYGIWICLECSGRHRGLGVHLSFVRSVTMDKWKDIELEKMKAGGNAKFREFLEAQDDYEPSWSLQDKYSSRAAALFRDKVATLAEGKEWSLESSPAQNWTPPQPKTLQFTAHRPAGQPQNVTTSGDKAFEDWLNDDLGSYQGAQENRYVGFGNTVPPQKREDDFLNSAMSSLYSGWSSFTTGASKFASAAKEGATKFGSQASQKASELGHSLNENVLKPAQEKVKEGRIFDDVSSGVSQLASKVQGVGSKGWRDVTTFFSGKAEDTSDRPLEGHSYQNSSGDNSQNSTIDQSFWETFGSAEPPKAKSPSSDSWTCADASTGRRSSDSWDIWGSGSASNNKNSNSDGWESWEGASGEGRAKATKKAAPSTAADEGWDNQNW

Melanocortin receptor 4 = Melanocortin receptor 4 (Homo sapiens, UniProt P32245); format: functional, cell-based;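 also: Cell-based assay with luminescence read-out, confirmatory dose-response testing for agonist activity of biased ligands at MC4R; human U2OS cells with tagged receptor and beta-arrestin; potency of agonists that increase receptor coupling to beta-arrestin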
Melanocortin receptor 4, sequence (P32245 whole entry, the tested form may be a part): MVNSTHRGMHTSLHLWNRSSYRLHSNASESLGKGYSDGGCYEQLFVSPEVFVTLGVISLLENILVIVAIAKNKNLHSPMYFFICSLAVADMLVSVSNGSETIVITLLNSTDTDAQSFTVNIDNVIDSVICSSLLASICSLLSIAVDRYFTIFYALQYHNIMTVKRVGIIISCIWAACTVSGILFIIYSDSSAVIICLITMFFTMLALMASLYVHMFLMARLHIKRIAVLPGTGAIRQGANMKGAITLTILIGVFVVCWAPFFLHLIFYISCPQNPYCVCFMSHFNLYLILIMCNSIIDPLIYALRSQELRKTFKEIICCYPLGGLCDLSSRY

[5] = biological target: T1, Sentrin-specific protease 1 (Homo sapiens, UniProt Q9P0U3); test: SENP1 catalytic domain blockers, concentration series – biochemical, kinetic FRET, dose response (AID 651697); format: functional; conditions: read-out: IC50_Mean
T1 sequence (Q9P0U3 whole entry, the tested form may be a part): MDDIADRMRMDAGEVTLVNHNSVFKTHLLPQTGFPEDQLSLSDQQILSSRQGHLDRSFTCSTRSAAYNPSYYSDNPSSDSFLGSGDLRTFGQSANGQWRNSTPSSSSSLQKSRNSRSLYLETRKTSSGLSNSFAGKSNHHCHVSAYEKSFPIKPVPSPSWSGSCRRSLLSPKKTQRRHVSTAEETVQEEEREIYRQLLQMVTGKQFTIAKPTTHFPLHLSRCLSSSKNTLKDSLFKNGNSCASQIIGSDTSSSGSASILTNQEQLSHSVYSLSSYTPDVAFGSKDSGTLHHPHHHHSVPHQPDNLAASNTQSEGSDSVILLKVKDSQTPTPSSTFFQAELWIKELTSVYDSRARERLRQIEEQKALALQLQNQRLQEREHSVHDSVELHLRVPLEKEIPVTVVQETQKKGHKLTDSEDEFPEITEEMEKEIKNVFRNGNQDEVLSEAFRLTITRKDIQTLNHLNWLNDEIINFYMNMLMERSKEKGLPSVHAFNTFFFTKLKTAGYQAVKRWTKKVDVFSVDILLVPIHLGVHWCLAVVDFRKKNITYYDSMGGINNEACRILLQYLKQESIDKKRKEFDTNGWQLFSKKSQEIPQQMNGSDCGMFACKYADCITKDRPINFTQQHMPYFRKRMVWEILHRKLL

[6] = biological target: T1, Sentrin-specific protease 1; test: Dose response confirmation of small molecule inhibitors of the catalytic domain of the SUMO protease, SENP1 in a FRET assay.; format: functional; conditions: read-out: IC50_Mean
[7] = biological target: T2, Beta-2 adrenergic receptor (Homo sapiens, UniProt P07550); test: Dose response for HTS for Beta-2AR agonists via FAP method from Powderset1.; format: functional
T2 sequence (P07550 whole entry): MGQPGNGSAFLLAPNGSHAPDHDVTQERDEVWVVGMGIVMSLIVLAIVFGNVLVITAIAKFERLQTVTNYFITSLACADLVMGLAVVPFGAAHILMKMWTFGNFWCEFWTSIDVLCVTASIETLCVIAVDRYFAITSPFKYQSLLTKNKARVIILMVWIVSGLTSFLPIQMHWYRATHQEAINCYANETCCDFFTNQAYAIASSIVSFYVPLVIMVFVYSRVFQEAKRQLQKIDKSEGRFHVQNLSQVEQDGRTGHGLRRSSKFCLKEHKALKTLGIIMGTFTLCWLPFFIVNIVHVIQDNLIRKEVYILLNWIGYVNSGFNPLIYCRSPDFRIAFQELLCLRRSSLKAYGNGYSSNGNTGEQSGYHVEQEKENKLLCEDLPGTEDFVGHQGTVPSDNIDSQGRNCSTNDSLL

[8] = biological target: T2, Beta-2 adrenergic receptor; test: ADRB2 activation measured by internalization – cell-based, FAP fluorogen, flow cytometry, cherry pick 1, dose response (AID 588763); format: functional
[9] = YAP1 overexpression rescue of CTGF inhibition – DLD1 cells, RT-qPCR, cherry-pick, mechanism study for YAP1 pathway inhibitor project, dose response (AID 1053127); format: functional, cell-based; conditions: DLD-1
[10] = test system: Streptococcus sp. 'group A'; test: Streptococcus pyogenes SK(-)GAS viability under kanamycin – luminescence, BacTiterGlo, confirmation, counter-screen for streptokinase expression inhibitor project, dose response (AID 1900); format: functional, organism-based
Streptococcus = test: GAS UMAA2166 growth inhibition – luminescence, BacTiterGlo, counter-screen for streptokinase expression inhibitor project, dose response (AID 1915); format: functional, organism-based;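 also: potency for reduction of bacterial viability or growth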
[11] = HGIII-sPLA2 enzyme inhibition potency – biochemical, QFRET, IC50, dose response (AID 743457);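 also: green fluorescence rise as the enzyme cleaves BODIPY PC-A2 in liposomes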
[12] = biological target: FAD-linked sulfhydryl oxidase ALR (Homo sapiens, UniProt P55789); test: ALR-catalysed DTT oxidation blockers – biochemical, H2O2 detection, luminescence, cherry-pick, dose response (AID 493248)
FAD-linked sulfhydryl oxidase ALR, sequence (P55789 whole entry): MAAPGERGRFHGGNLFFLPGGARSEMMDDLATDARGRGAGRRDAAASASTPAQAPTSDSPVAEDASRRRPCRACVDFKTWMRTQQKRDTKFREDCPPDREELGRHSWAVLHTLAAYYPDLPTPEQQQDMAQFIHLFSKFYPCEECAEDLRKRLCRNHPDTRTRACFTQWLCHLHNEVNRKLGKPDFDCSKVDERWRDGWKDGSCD

Mu-type opioid receptor = Mu-type opioid receptor (Homo sapiens, UniProt P35372); format: functional, cell-based;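 also: U2OS cells with beta-arrestin recruitment to OPRM1 by beta-gal complementation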
Mu-type opioid receptor, sequence (P35372 whole entry): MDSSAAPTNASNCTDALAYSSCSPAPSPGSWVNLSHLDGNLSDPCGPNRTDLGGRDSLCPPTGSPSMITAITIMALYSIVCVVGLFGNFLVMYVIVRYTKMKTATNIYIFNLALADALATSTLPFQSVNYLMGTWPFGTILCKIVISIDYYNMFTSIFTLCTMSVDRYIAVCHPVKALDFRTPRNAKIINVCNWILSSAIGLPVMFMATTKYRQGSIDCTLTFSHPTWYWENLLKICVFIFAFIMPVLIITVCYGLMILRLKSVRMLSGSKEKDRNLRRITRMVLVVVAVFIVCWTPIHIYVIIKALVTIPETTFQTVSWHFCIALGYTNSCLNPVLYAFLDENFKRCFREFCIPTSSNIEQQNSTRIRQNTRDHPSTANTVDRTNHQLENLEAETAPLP

[13] = biological target: 5-hydroxytryptamine receptor 2A (Mus musculus, UniProt P35363); format: functional, cell-based;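 also: CHO-K1 cells with tagged receptor and beta-arrestin; agonist potency measured as compound-induced activation of the receptor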
5-hydroxytryptamine receptor 2A, sequence (P35363 whole entry): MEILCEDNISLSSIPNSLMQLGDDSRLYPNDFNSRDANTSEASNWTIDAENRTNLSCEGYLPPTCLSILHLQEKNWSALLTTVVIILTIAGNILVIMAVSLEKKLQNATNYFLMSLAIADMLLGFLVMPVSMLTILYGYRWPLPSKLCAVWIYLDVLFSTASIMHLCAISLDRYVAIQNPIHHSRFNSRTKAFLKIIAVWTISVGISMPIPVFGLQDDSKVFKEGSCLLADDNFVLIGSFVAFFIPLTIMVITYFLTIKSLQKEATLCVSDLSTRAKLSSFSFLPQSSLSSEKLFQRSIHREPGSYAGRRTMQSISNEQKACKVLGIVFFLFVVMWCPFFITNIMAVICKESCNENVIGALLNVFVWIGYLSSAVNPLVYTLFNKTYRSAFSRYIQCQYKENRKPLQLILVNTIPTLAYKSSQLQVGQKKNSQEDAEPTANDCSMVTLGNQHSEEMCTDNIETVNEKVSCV

[14] = reduced cellular PGC1a acetyl-lysine signal – cell-based, cherry-picked samples, dose response (AID 720514); format: functional;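 also: potency may reflect raised or lowered acetylation signal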
[15] = reduction of Shn3 3'UTR-driven luciferase in osteoblasts – cell-based, Clone20 osteoblasts, firefly luciferase, cherry-picked, dose response (AID 624132); format: functional;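 also: firefly luciferase luminescence from reporter carrying the Shn3 3'UTR in osteoblasts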
[16] = loss of viability in HepG2 cells – cell-based, CellTiter-Glo, cherry-picked, cytotoxicity control for Shn3 inhibitor project, dose response (AID 624134); format: functional
[17] = non-specific 3'UTR reporter inhibition in Clone20-Shn3RL – cell-based, Renilla luciferase, cherry-picked, counter-screen for Shn3 inhibitor project, dose response (AID 624133); format: functional
[18] = Shn3 3'UTR reporter signal decrease – cell-based, Clone20 osteoblasts, firefly luciferase, cherry-pick, set 2, Schnurri-3 inhibitor project, dose response (AID 720490); format: functional;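 also: actives lower the luminescence signal as inhibitors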
[19] = EF1alpha-driven Renilla reporter with control 3'UTR suppression – Clone20-Shn3RL cells, dual-Glo, cherry-pick, set 2, counter-screen for Shn3 3'UTR targeting project, dose response (AID 720724); format: functional, cell-based; conditions: Dual-Go Shn3RL
[20] = biological target: Oxysterols receptor LXR-beta (Homo sapiens, UniProt P55055); format: functional, cell-based;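 also: agonist activity at LXR measured by a cell-based luminescence readout across a dose range, run as a counterscreen for daf-12 agonists; HEK293 cells with Gal4-LXR fusion and GAL4-driven luciferase reporter; potency for activation of Gal4-LXR reporter so compounds are agonists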
Oxysterols receptor LXR-beta, sequence (P55055 whole entry, the tested form may be a part): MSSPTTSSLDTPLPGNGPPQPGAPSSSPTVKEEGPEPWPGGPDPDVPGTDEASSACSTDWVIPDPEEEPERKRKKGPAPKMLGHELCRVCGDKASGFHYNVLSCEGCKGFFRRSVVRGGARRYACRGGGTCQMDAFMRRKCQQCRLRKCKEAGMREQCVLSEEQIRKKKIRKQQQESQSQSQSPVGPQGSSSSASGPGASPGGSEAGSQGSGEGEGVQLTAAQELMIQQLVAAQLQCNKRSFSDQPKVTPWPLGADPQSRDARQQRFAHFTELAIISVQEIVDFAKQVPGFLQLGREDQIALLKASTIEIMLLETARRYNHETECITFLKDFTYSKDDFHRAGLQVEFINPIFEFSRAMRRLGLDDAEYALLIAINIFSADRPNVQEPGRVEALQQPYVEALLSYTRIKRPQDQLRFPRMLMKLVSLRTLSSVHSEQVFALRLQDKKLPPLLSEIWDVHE

SMILES: C[C@@H]1CN([C@@H](C)CO)C(=O)Cc2cc(NC(=O)c3ccncc3)ccc2O[C@H]1CN(C)Cc1ccncc1
AC50 (HEK293): > 52 µM (inactive)
AC50 [1]: > 52 µM (inactive)

IC50 [2]: 46.5 µM (active)
IC50 [3]: > 100 µM (inactive)
IC50 (Prothrombin): 61.3 µM (active)
AC50 (Caspase-6): 18.6 µM (active)
SMILES: CN(CC(=O)Nc1ccc(F)c(F)c1F)C(=O)CCc1nc(O)c2c3c(sc2n1)CCCC3

IC50 [4]: 52.2 µM (inactive)
SMILES: C=CCOc1ccc(/C=C/C(=O)Nc2ccc(C(=O)NC)cc2)cc1

EC50 (Melanocortin receptor 4): > 89.2 µM (inactive)
IC50 [5]: 12.8 µM (active)
IC50 [6]: 6.92 µM (active)
SMILES: CCOc1ccc(Cn2c3ccc(OC)cc3c3nc4ccccc4nc32)cc1OC

EC50 [7]: 0.0233 µM (active)
EC50 [8]: 262 nM (active) and 107 nM (active)
SMILES: CC(=O)Nc1ccc(S(=O)(=O)N2CCCCC2c2cccnc2)cc1 (stereo unspecified)

SMILES: O=C(Nc1ccc(C(F)(F)F)cc1)Nc1ccc2c(c1)[C@H]1C[C@H](CC(=O)N3CCc4ccccc4C3)O[C@@H](CO)[C@H]1O2
AC50 [9]: > 26 µM (inactive)

SMILES: O=C(NNC(=S)NC(=O)c1cccs1)c1ccc(NC(=O)c2ccccc2)cc1
EC50 [10]: 0.479 µM (active)
EC50 (Streptococcus): 6.3 µM (active)
IC50 [11]: 51.9 µM (inactive)

AC50 [12]: 3.86 µM (active)
EC50 (Mu-type opioid receptor): 92.5 µM (inactive)
EC50 [13]: 0.662 µM (active)
SMILES: COc1ccccc1C(=O)NCCN1CCN(c2ccccc2)CC1

SMILES: CC(C)CC#Cc1ccc2c(c1)O[C@@H](CN(C)Cc1ccc3c(c1)OCO3)[C@H](C)CN([C@H](C)CO)S2(=O)=O
AC50 [14]: 12.6 µM (active)

SMILES: Cc1ccc2nc(NC(=O)C3CCN(S(=O)(=O)c4ccc5c(c4)oc(=O)n5C)CC3)sc2c1
AC50 [15]: 3.35 µM (active)
AC50 [16]: 54.7 µM (active)
AC50 [17]: 11.1 µM (active)
AC50 [18]: 7.23 µM (active)
AC50 [19]: 29.1 µM (active)

EC50 [20]: > 67.5 µM (inactive)
SMILES: Nc1nn(-c2cccc(F)n2)cc1-c1ccccc1

Source: ChEMBL document CHEMBL1201862, “PubChem BioAssay data set” (2004)
